The source of these data is US20190284129A1, “LIPID COMPOUNDS AND COMPOSITIONS AND THEIR OPTHALMIC USE” (BIOZEP AS, priority 2015, published 2019).

What all share (assay type): cell-based
One data set has as its target T1, human PPARalpha receptor (Homo sapiens, UniProt Q07869).
T1 construct: expressed in transfected cells; host or cells: HEK293 (DSMZ ACC 305)
T1 sequence (Q07869 239-466 limits assumed): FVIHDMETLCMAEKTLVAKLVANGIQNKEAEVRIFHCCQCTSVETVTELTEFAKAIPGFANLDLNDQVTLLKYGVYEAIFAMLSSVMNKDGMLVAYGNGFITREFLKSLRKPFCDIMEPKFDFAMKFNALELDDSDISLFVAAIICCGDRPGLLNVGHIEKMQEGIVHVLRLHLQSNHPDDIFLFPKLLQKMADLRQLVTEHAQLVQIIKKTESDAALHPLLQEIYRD
The data set can be described thus: cellular GAL4 reporter gene assay (M1H) in HEK293 cells, PPARalpha. The note with it: agonist mode; for Efficacy vs. Fenofibric Acid / Efficacy vs. GW7647: HEK293; for EC50: HEK293, GAL4 reporter. The protocol:
The compounds BIZ-102 (Example 2), BIZ-103 (Example 5) and BIZ-106 were tested at the human PPARalpha receptor in a cellular GAL4 Reporter gene assay. The assay was run in agonist and antagonist mode to detect agonistic as well as antagonistic activities of the tested compounds.
Performance of the GAL4 cellular reporter assay:
Day 1: Cells were seeded in 96 well plates in plating medium (MEM with serum), incubation overnight at 37° C., 5% CO2.
Day 2: Removal of plating medium
Addition of PEI-based transfection agent
Incubation for 4-6 hours at 37° C., 5% CO2
Addition of assay medium (MEM with serum)
Addition of compounds (dilution series was generated in MEM with serum)
Incubation overnight at 37° C., 5% CO2
Day 3: Removal of assay medium (16-20 hours after compound addition)
Addition of Passive Lysis Buffer (Promega)
15 mins incubation at room temperature
Addition of luciferase buffers and measurement in a dual-flash procedure
(§1) The assays were done in HEK293 cells (DSMZ ACC 305). The plasmids used in the GAL4 assay system were derivatives of Stratagene's M2H plasmids: the reporter plasmid pFR-Luc (containing a synthetic promoter with five tandem repeats of the yeast GAL4 binding sites that control expression of the Photinus pyralis (American firefly) luciferase gene), and pCMV-BD (for fusions of nuclear receptor ligand binding domains to the DNA-binding domain of the yeast protein GAL4). In order to improve experimental accuracy, a second reporter—Renilla reniformis luciferase, driven by a constitutive promoter—was included as an internal control. Using the control reporter (Renilla Luciferase) allowed corrections for variations in experimental handling, e.g. transfection efficacy, cell viability, pipetting errors, cell lysis efficiency and assay efficiency.
Primary read out of the assays was loaded into PhAST (Phenex Assay and Screening Tool) and checked for assay quality (generation of SB and Zprime values). […] Within PhAST there are two measured and one calculated data layers:
LAYER1 (measured)—contains the activity values of the firefly luciferase activities and is a direct measure for modulation of the cofactor binding properties of the Nuclear Receptors by the tested compounds.
LAYER2 (measured)—contains the activity values of the renilla luciferase activities and is used as normalisation layer. As the renilla luciferase is expressed under control of the constitutively active CMV promoter, moderate well-to-well differences can be used to correct for variations in experimental handling.
LAYER3 (calculated)—is calculated according to the following equation: […]
1000*Firefly luciferase value/Renilla luciferase value
These normalised values are, as well as LAYER1, a measure for the modulation of the cofactor binding properties of the nuclear receptors by the tested compounds.

In a further data set the target is T2, human PPARbeta/delta (Homo sapiens, UniProt Q03181).
T2 construct: expressed in transfected cells; host or cells: HEK293 (DSMZ ACC 305)
T2 sequence (Q03181 211-439 limits assumed): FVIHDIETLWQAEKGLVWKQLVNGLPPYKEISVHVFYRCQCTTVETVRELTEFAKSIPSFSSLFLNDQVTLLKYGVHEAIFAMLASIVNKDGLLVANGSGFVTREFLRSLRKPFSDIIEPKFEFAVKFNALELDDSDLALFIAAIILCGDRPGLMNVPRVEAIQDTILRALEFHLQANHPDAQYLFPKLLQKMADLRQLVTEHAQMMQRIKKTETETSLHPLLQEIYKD
The data set can be described thus: cellular GAL4 reporter gene assay, agonist mode, PPARbeta/delta.
Excerpt: as §1, with “M2H” left out, “reporter-Renilla” for “reporter—Renilla”, “promoter-was” for “promoter—was”, “efficiency. […] The compounds BIZ-102 and BIZ-103 were tested at the human PPARbeta/delta and PPARgamma receptors using the same cellular GAL4 Reporter gene assays as in Example 6. The assays were run in agonist mode to detect agonistic activities of the tested compounds.” for “efficiency.”

Another data set addresses T3, human PPARgamma (Homo sapiens, UniProt P37231).
T3 construct: expressed in transfected cells; host or cells: HEK293 (DSMZ ACC 305)
T3 sequence (P37231 238-503 limits assumed): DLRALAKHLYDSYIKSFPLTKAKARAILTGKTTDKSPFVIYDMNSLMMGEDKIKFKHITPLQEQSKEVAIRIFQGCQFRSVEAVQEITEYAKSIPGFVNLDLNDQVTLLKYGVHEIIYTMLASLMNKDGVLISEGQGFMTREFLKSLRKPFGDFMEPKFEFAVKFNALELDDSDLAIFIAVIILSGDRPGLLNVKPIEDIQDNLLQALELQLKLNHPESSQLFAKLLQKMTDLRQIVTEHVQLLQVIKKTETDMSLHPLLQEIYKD
The data set can be described thus: cellular GAL4 reporter gene assay, agonist mode, PPARgamma.
Excerpt: as §1, with “M2H” left out, “reporter-Renilla” for “reporter—Renilla”, “promoter-was” for “promoter—was”, “efficiency. […] The compounds BIZ-102 and BIZ-103 were tested at the human PPARbeta/delta and PPARgamma receptors using the same cellular GAL4 Reporter gene assays as in Example 6. The assays were run in agonist mode to detect agonistic activities of the tested compounds.” for “efficiency.”

The next data set has as its system ARPE-19 cells. The data set can be described thus: oxidative stress (tert-butyl hydroperoxide) cytolysis assay in ARPE-19 retinal pigment epithelial cells. The note with it: fenofibric acid 25 μM, BIZ-101 10 μM. The method, then: In order to evaluate the potential of BIZ-101 to protective the eye from oxidative stress damage the compound was tested in a cell based assay. Oxidative stress was induced in an ARPE-19 cell line using tert-butyl hydroperoxide at different concentrations. The cellular viability was kinetically monitored and measured by analysing the plasma membrane integrity based on the incorporation of a non-permeant and fluorescent DNA intercalating agent that selectively stain cytolytic cells with comprised plasma membranes.
(§2) The ARPE-19 cell line was seeded and cultured in DMEM-F12 medium+10% SVF for 24 hrs in a 96 well plate. Cells were pre-treated or not with either fenofibric acid (25 μM) or compound BIZ-101 (10 μM) during this 24 hr period. After 24 hrs, the different concentrations of t-butyl hydroperoxide were added in the presence of a fluorescent DNA intercalating agent for the following monitoring. Live content time-lapse imaging was performed with a sampling rate of 1 image every 2 hr over a 96 hrs period. The number of fluorescent/cytolytic cells were counted and reported during the experiment. The treatment conditions were tested in one experiment session in a triplicate format.
Fenofibric acid was used at 25 μM and was ordered from Sigma Aldrich. The day of the pre-treatment, a 25 mM stock solution of fenofibric acid was prepared in DMSO and diluted in the complete culture medium at 25 μM. 100 μL of this solution or 100 μL of complete culture medium+0.1% DMSO replaced the 100 μL of the complete culture medium already present in the well. The day of the treatment with t-butyl hydroperoxide, a 2 times concentrated solution of fenofibric acid was freshly diluted in the complete culture medium and 50 μL of this solution or 50 μL of complete culture medium+0.2% DMSO were added to the 100 μL of the culture medium already present in the well.
Compound BIZ-101 was tested at a final concentration of 10 μM. A 10 mM predilution was prepared in DMSO from a 10 mM stock solution. The 10 mM solution of BIZ 101 was diluted in the complete culture medium at 10 μM. 100 μL, of this solution or 100 μL of the complete culture medium+0.1% DMSO replaced the 100 μL, of the complete culture medium already present in the well. The day of the treatment with t-butyl hydroperoxide, a 2 times concentrated solution of BIZ 101 was freshly diluted in the complete culture medium and 50 μL of this solution or 50 μL of complete culture medium+0.2% DMSO were added to the 100 μL of the culture medium already present in the well.
Preparation of the tert-butyl hydroperoxide [tBHP] solution: 0, 0.01 mM, 0.03 mM, 0.1 mM, 0.3 mM, 1 mM, 3 mM and 10 mM. A 4 times concentrated solution of tBHP was freshly diluted in the complete culture medium for each of the concentrations to be tested. 50 μL of the 4 times concentrated solution was added to the 150 μL of the cultured medium.
In order to evaluate the potential of BIZ-102 to protect the eye from oxidative stress damage the compound was tested in a cell based assay similar to Example 24 with the following changes. The oxidative stress in the ARPE-19 cell line was induced by using 3 different concentrations of tBHP: 10 μM, 30 μM and 100 μM and BIZ-102 was tested in 2 different concentrations: 1 μM and 10 μM.
as §2, with “with” for “with either fenofibric acid (25 μM) or”, “BIZ-102 (1 μM and 10” for “BIZ-101 (10”
Compound BIZ-102 was tested at a final concentration of 1 and 10 μM. […]

The next data set relates to NF-κB pathway. Description: NF-κB luciferase reporter assay in NF-κB Reporter-HEK293 cells, TNFa stimulated. The note with it: FIG. 5. An excerpt:
The NF-κB reporter (luc)-HEK293 cell line is designed for monitoring the nuclear factor Kappa B (NF-κB) signal transduction pathways. It contains a firefly luciferase gene driven by four copies of NF-κB response element located upstream of the minimal TATA promoter. After activation by pro-inflammatory cytokines or stimulants of lymphokine receptors, endogenous NF-κB transcription factors bind to the DNA response elements, inducing transcription of the luciferase reporter gene.
NF-κB Reporter-HEK293 cells were cultured in MEM medium with 10% FBS, 1% non-essential amino acids, 1 mM Na-pyruvate, 1% Penn-strep, and 100 µg/ml of Hygromycin B.
To perform the NF-κB luciferase reporter assay, NF-κB Reporter-HEK293 cells were seeded at 40,000 cells per well into white clear-bottom 96-well microplate in 45 μl of growth medium without Hygromycin B. Cells were incubated at 37° C. and 5% CO2 overnight to allow them to recover and reattach. The following day a series of dilutions of compounds were made in assay medium (MEM medium with 0.5% FBS, 1% non-essential amino acids, 1 mM Na-pyruvate, 1% Penn-strep). The medium was removed from the wells and 45 μl of diluted compound was added to the cells. Assay medium with DMSO was added to the untreated control wells and cell-free control wells. The final concentration of DMSO was 0.25%. The cells were incubated overnight at 37° C. in CO2 incubator. […]
After treatment, cells were then lysed and a luciferase assay was performed using the ONE-Step luciferase assay system. […] Luminescence was measured using a luminometer (BioTek Synergy™ 2 microplate reader).
Reporter assays were performed in triplicate at each concentration. The luminescence intensity data were analyzed using the computer software, Graphpad Prism. In the absence of the compound, the luminescence intensity (Lt) in each data set was defined as 100%. In the absence of cells, the luminescence intensity (Lb) in each data set was defined as 0%. The percent luminescence in the presence of each compound was calculated according to the following equation: % Luminescence=(L−Lb)/(Lt−Lb), where L=the luminescence intensity in the presence of the compound, Lb=the luminescence intensity in the absence of cells, and Lt=the luminescence intensity in the absence of the compound. The values of % luminescence versus a series of compound concentrations were then plotted using non-linear regression analysis of a Sigmoidal dose-response curve generated with the equation Y=B+(T B)/1+10^((Log EC50-X)×Hill Slope), where Y=percent luminescence, B=minimum percent luminescence, T=maximum percent luminescence, X=logarithm of compound and Hill Slope=slope factor or Hill coefficient. The IC50 value was determined by the concentration causing a half-maximal percent activity.

Where “and” joins values, the source holds several entries; their conditions need not be identical. Identical values can stand only once.

In the case of `CCCCC/C=C\C/C=C\C/C=C\C/C=C\CCCC(=O)O` [BIZ-107], on human PPARalpha receptor, the “Efficacy vs. Fenofibric Acid” value worked out at 30%; the “Efficacy vs. GW7647” value is given as 100%; the 50% effective concentration (EC50) was ~26 µM and 26 µM.

With `CCCCCCCCCCCCCCSC(C)C(=O)O` (centres unmarked) [BIZ-103], on human PPARalpha receptor, the “Efficacy vs. Fenofibric Acid” value is recorded as 55% and the “Efficacy vs. GW7647” value is recorded as 180%. Also, on human PPARbeta/delta, the EC50 amounted to 8.9 µM and the “PPARbeta/delta efficacy vs. GW501516” value turned out to be 18%. Besides, on human PPARgamma, it took 1.6 µM to reach a half-maximal effect (EC50) and the “PPARgamma efficacy vs. Rosiglitazone” value worked out at 20%.

In the case of `CC(C)(Oc1ccc(C(=O)c2ccc(Cl)cc2)cc1)C(=O)O` [fenofibric acid, reference compound], at human PPARalpha receptor, the EC50 fell in the range of 10 to 18 µM. For the same compound, in the data set on ARPE-19 cells (6 hrs after addition of tBHP, 24 hr pre-treatment), the “dose dependent cytotoxicity of tBHP” value was “slightly decreased”. Moreover, the “protective effects against tBHP cytotoxicity” value with ARPE-19 cells (24 hrs after addition of t-BHP) is given as “more efficient”.

`CC/C=C\C/C=C\C/C=C\C/C=C\C/C=C\C/C=C\CC(CC)C(=O)O` (centres unmarked) [BIZ-106, 2-ethyl (4Z,7Z,10Z,13Z,16Z,19Z)-docosa-4,11,10,13,16,19-hexaenoic Acid]: on human PPARalpha receptor, the “Efficacy vs. Fenofibric Acid” value came out at 25%; the “Efficacy vs. GW7647” value is listed as 80%; the EC50 was ~5 µM and 5 µM.

Turning to `CC/C=C\C/C=C\C/C=C\C/C=C\C/C=C\CCCCOC(CC)C(=O)O` (centres unmarked) [BIZ-110, 2-((5Z,8Z,11Z,14Z,17Z)-icosa-5,8,11,14,17-pentaen-1-yloxy) butanoic Acid], the “dose dependence of inhibitory effect on the NF-κB pathway” value with NF-κB pathway is given as “dose dependent”. Further, in the data set with NF-κB pathway (at high concentration), the “complete inhibition of the NF-κB pathway” value is listed as “completely inhibited”.
